Measurements: US8877801B2, “Compounds and compositions as selective estrogen receptor degraders” (Novartis AG, priority 2013, dated 2014)

The compounds below were run against T1, ER (Homo sapiens, UniProt P03372) (assay: ER transcription assay (MCF7 cells), ERE-luciferase reporter). Settings: MCF7 cells, ER reporter gene, 0.1 nM 17β estradiol, 24 hours; read-out: MCF7 IC50 (inflection point of the inhibition of transcription in MCF7 cells).
T1 construct: transfected in MCF7 cells (containing endogenous ER); endogenous in cells; host or cells: MCF7 cells
T1 sequence (P03372 1-595): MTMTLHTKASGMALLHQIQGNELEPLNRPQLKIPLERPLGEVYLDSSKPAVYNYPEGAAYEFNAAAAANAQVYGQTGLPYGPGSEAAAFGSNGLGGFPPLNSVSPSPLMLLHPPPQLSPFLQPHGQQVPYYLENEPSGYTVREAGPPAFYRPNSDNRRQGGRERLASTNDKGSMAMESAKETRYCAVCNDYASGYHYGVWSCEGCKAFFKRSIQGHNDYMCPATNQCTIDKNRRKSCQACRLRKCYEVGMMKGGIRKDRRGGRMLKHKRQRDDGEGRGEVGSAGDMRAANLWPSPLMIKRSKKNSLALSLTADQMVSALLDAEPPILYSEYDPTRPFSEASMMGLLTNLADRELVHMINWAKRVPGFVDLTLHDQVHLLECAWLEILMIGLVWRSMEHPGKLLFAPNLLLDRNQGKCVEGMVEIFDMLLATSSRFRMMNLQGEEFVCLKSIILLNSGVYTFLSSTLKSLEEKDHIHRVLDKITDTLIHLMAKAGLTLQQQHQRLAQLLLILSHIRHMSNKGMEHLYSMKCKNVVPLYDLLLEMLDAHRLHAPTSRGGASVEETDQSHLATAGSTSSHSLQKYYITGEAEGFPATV
Assay type: cell-based
Excerpt: ER Transcription Assay (MCF7 Cells)
The ER transcription assay is a reporter assay that is based on the ability of ER to induce transcription from a luciferase reporter gene containing estrogen response elements (EREs) in the promoter/enhancer region. When the reporter gene is transfected in MCF7 cells (containing endogenous ER), transcription is reflected by the level of luciferase expression.
A day before transfection, cells are split into a T75 flask at a cell density of 300,000 cells/mL (10 mL total) and allowed to attach overnight in a humidified CO2 incubator at 37° C.
Approximately 20 ug DNA is mixed in OptiMEM (Invitrogen) to a total volume of 650 μL. Following incubation, the OptiMEM-DNA mixture is added to the OptiMEM-Lipofectin mix and incubated for 15 minutes at 37° C. The DNA-Lipofectin mixture is then added directly to the T75 flask and the flask is returned to the incubator.
After overnight incubation, compound is added to individual wells of a 96-well plate in a 10 μL volume of media at 10× concentration along with 17β estradiol whose final concentration is 0.1 nM. Normally, DMSO (used as a vehicle) is included to achieve a final concentration of 0.1% when added to the cells. Transfected cells are trypsinized, resuspended in DMEM/F12/10% charcoal-stripped serum and added to the 96-well plate at 25,000 cells/well in 90 μL of media. The plate is then returned to the incubator for 24 hours.
After incubation with compounds for 24 hours, Firefly and Renilla luciferase activities are measured to determine ER transcriptional activity. Media is removed from 96-well plates by decanting and blotting on paper towels.
One second total read time after a one second delay.
One second total read time after one second delay. If Firefly luciferase signal is high, Renilla assay must be done an hour after the Firefly assay due to incomplete squelching of Firefly signal.
The data describing the antagonist and degradation properties for the examples is compiled in table 10. The column titled MCF7 IC50 reports the inflection point of the inhibition of transcription in MCF7 cells as described above. Percentage ERα remaining reports the remaining ERα protein measured at 10 μM concentration of the ligand as described above. The column ERα IC50 reports the inflection point of the degradation in response to the ligand concentration.

| Structure (SMILES) | IC50 |
| --- | --- |
| CC(C)(C)c1ccc(-c2sc3cc(O)ccc3c2Oc2ccc(/C=C/C(=O)O)cc2)cc1 [Example 22, (E)-3-(4-((2-(4-(tert-butyl)phenyl)-6-hydroxybenzo[b]-thiophen-3-yl)oxy)phenyl)-acrylic acid] | 853 nM |
| Cc1cc(-c2sc3cc(O)ccc3c2Oc2ccc(/C=C/C(=O)O)cc2)ccc1O [Example 61, (E)-3-(4-((6-hydroxy-2-(4-hydroxy-3-methylphenyl)benzo[b]-thiophen-3-yl)oxy)phenyl)acrylic acid] | 327 nM |
| O=C(O)/C=C/c1ccc(Oc2c(-c3cccc(F)c3)sc3cc(O)ccc23)cc1 [Example 7, (E)-3-(4-((2-(3-fluorophenyl)-6-hydroxybenzo[b]-thiophen-3-yl)oxy)phenyl)-acrylic acid] | 713 nM |
| O=c1nc(/C=C/c2ccc(Oc3c(-c4ccc(O)cc4)sc4cc(O)ccc34)cc2)cc(C(F)(F)F)[nH]1 [Example 50, (E)-4-(4-((6-hydroxy-2-(4-hydroxyphenyl)-benzo[b]thiophen-3-yl)oxy)styryl)-6-(trifluoromethyl)-pyrimidin-2(1H)-one] | 154 nM |
| Cc1c(O)cccc1-c1sc2cc(O)ccc2c1Oc1ccc(/C=C/C(=O)O)cc1 [Example 16, (E)-3-(4-((6-hydroxy-2-(3-hydroxy-2-methyl-phenyl)benzo[b]-thiophen-3-yl)oxy)phenyl)-acrylic acid] | 128 nM |
| C/C(=C\C(=O)O)c1ccc(Oc2c(-c3ccc(O)cc3)sc3cc(O)ccc23)cc1 [Example 62, (E)-3-(4-((6-hydroxy-2-(4-hydroxyphenyl)-benzo[b]thiophen-3-yl)oxy)phenyl)but-2-enoic acid] | 316 nM |
| Cn1nnnc1/C=C/c1ccc(Oc2c(-c3ccc(O)cc3)sc3cc(O)ccc23)cc1 [Example 54, (E)-2-(4-hydroxyphenyl)-3-(4-(2-(1-methyl-1H-tetrazol-5-yl)vinyl)-phenoxy)benzo[b]thiophen-6-ol] | 1 nM |
| Cc1nnc(/C=C/c2ccc(Oc3c(-c4ccc(F)cc4C)sc4cc(O)ccc34)cc2)[nH]1 [Example 49, (E)-2-(4-fluoro-2-methylphenyl)-3-(4-(2-(5-methyl-4H-1,2,4-triazol-3-yl)vinyl)phenoxy)benzo[b]thiophen-6-ol] | 41 nM |
| O=C(O)/C=C/c1ccc(Oc2c(-c3ccc(O)cc3)sc3cc(O)ccc23)cn1 [Example 29, (E)-3-(5-((6-hydroxy-2-(4-hydroxyphenyl)benzo[b]thiophen-3-yl)oxy)pyridin-2-yl)acrylic acid] | 7750 nM |
| Cn1nnnc1/C=C/c1ccc(Oc2c(-c3ccc(F)cc3)sc3cc(O)ccc23)cc1 [Example 52, (E)-2-(4-fluorophenyl)-3-(4-(2-(1-methyl-1H-tetrazol-5-yl)vinyl)phenoxy)benzo [b]thiophen-6-ol] | 5980 nM |
| Cc1nnc(/C=C/c2ccc(Oc3c(-c4ccc(F)cc4C)sc4cc(O)ccc34)cc2)o1 [Example 46, (E)-2-(4-fluoro-2-methylphenyl)-3-(4-(2-(5-methyl-1,3,4-oxadiazol-2-yl)vinyl)phenoxy)benzo[b]thiophen-6-ol] | 108 nM |
| CNC(=O)/C=C/c1ccc(Oc2c(-c3ccc(O)cc3)sc3cc(O)ccc23)cc1 [Example 66, (E)-3-(4-((6-hydroxy-2-(4-hydroxyphenyl)benzo-[b]thiophen-3-yl)oxy)phenyl)-N-methylacrylamide] | 53 nM |
| O=C(O)/C=C/c1ccc(Oc2c(-c3ccc(C(F)(F)F)cc3)sc3cc(O)ccc23)cc1 [Example 3, (E)-3-(4-((6-hydroxy-2-(4-(trifluoromethyl)phenyl)benzo[b]thiophen-3-yl)oxy)phenyl)acrylic acid] | 941 nM |
| Cc1noc(C)c1-c1sc2cc(O)ccc2c1Oc1ccc(/C=C/C(=O)O)cc1 [Example 15, (E)-3-(4-((2-(3,5-dimethylisoxazol-4-yl)-6-hydroxybenzo-[b]thiophen-3-yl)oxy)-phenyl)acrylic acid] | 404 nM |
| Cc1ccc(C)c(-c2sc3cc(O)ccc3c2Oc2ccc(/C=C/C(=O)O)cc2)c1 [Example 14, (E)-3-(4-((2-(2,5-dimethylphenyl)-6-hydroxybenzo[b]-thiophen-3-yl)oxy)phenyl)-acrylic acid] | 238 nM |
| O=C(O)/C=C/c1ccc(Oc2c(-c3ccc(Cl)cc3)sc3cc(O)ccc23)cc1 [Example 6, (E)-3-(4-((2-(4-chlorophenyl)-6-hydroxybenzo[b]-thiophen-3-yl)oxy)phenyl)-acrylic acid] | 3100 nM |
| NC(=O)/C=C/c1ccc(Oc2c(-c3ccc(O)cc3)sc3cc(O)ccc23)cc1 [Example 64, (E)-3-(4-((6-hydroxy-2-(4-hydroxyphenyl)-benzo[b]thiophen-3-yl)oxy)phenyl)acrylamide] | 40 nM |
| CCc1ccccc1-c1sc2cc(O)ccc2c1Oc1ccc(/C=C/C(=O)O)cc1 [Example 18, (E)-3-(4-((2-(2-ethylphenyl)-6-hydroxybenzo[b]-thiophen-3-yl)oxy)phenyl)-acrylic acid] | 36 nM |
| CC(C)(C)c1ccccc1-c1sc2cc(O)ccc2c1Oc1ccc(/C=C/C(=O)O)cc1 [Example 20, (E)-3-(4-((2-(2-(tert-butyl)phenyl)-6-hydroxybenzo[b]-thiophen-3-yl)oxy)phenyl)-acrylic acid] | 36 nM |
| Cc1cc(/C=C/C(=O)O)ccc1Oc1c(-c2ccc(O)cc2)sc2cc(O)ccc12 [Example 57, (E)-3-(4-((6-hydroxy-2-(4-hydroxyphenyl)-benzo[b]thiophen-3-yl)oxy)-3-methylphenyl)acrylic acid] | 1030 nM |
| CCOC(=O)/C=C/c1ccc(Oc2c(-c3ccc(O)cc3)sc3cc(O)ccc23)cc1C [Example 34, (E)-ethyl 3-(4-((6-hydroxy-2-(4-hydroxyphenyl)benzo[b]-thiophen-3-yl)oxy)-2-methylphenyl)acrylate] | 48 nM |
| O=C(/C=C/c1ccc(Oc2c(-c3ccc(F)cc3)sc3cc(O)ccc23)cc1)NCCC(F)(F)F [Example 33, (E)-3-(4-((2-(4-fluorophenyl)-6-hydroxybenzo[b]-thiophen-3-yl)oxy)phenyl)-N-(3,3,3-trifluoropropyl)-acrylamide] | 73 nM |
| Cc1cc(F)ccc1-c1sc2cc(O)ccc2c1Oc1ccc(/C=C/c2nnnn2C)cc1 [Example 51, (E)-2-(4-fluoro-2-methylphenyl)-3-(4-(2-(1-methyl-1H-tetrazol-5-yl)vinyl)phenoxy)-benzo[b]thiophen-6-ol] | 61 nM |
| O=C(O)/C=C/c1ccc(Oc2c(-c3ccc(O)cc3)sc3c(F)c(O)ccc23)cc1 [Example 39, (E)-3-(4-((7-fluoro-6-hydroxy-2-(4-hydroxyphenyl)benzo[b]-thiophen-3-yl)oxy)phenyl)acrylic acid] | 653 nM |
| Cc1ccccc1-c1sc2cc(O)ccc2c1Oc1ccc(/C=C/C(=O)O)cc1 [Example 5, (E)-3-(4-((6-hydroxy-2-(o-tolyl)benzo-[b]thiophen-3-yl)oxy)-phenyl)acrylic acid] | 89 nM |
| O=C(/C=C/c1ccc(Oc2c(-c3ccc(O)cc3)sc3cc(O)ccc23)cc1)NCCC(F)(F)F [Example 31, (E)-3-(4-((6-hydroxy-2-(4-hydroxyphenyl)benzo[b]thiophen-3-yl)oxy)phenyl)-N-(3,3,3-trifluoropropyl)acrylamide] | 10 nM |
| O=C(O)/C=C/c1ccc(Oc2c(-c3ccc(C(F)F)cc3)sc3cc(O)ccc23)cc1 [Example 27, (E)-3-(4-((2-(4-(difluoromethyl)phenyl)-6-hydroxybenzo[b]thiophen-3-yl)oxy)phenyl)acrylic acid] | 7970 nM |
| O=C(O)/C=C/c1ccc(Oc2c(-c3ccccc3C(F)(F)F)sc3cc(O)ccc23)cc1 [Example 8, (E)-3-(4-((6-hydroxy-2-(2-(trifluoromethyl)-phenyl)benzo[b]-thiophen-3-yl)oxy)phenyl)-acrylic acid] | 23 nM |
